Test results reported in ChEMBL document CHEMBL1201862, “PubChem BioAssay data set” (2004).
Active and inactive are the calls of the source.

How the values were obtained:
[1] = target: T1, Heat shock factor protein 1 (Mus musculus, UniProt P38532); assay: inhibition of MG132-induced HSE-luciferase signal, confirmation, cell-based, NIH3T3, luminescence, dose retest (AID 2382); type: functional;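 note: NIH3T3 fibroblasts with HSF1-driven luciferase reporter stressed by proteasome inhibitor MG132; luminescence from HSF1-driven luciferase expression after 8 hours of MG132 stress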
T1 sequence (P38532 whole entry): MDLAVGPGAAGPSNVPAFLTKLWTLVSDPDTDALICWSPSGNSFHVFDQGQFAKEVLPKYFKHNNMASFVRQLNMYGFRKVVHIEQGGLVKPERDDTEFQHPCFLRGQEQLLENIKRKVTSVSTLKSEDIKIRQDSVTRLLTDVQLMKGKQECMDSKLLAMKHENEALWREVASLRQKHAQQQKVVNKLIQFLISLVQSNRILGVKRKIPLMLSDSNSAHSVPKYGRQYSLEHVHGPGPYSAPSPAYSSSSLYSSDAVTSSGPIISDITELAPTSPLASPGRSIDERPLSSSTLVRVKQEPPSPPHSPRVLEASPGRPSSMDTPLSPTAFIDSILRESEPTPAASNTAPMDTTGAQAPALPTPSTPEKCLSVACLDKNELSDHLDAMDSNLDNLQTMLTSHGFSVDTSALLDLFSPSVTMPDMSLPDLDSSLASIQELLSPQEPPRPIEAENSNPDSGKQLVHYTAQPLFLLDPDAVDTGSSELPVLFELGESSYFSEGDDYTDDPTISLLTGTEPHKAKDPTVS

[2] = target: T2, Carboxy-terminal domain RNA polymerase II polypeptide A small phosphatase 1 (Homo sapiens, UniProt Q9GZU7); assay: inhibitors of CTDSP1, concentration-response testing, biochemical assay, absorbance-based, actives from ultra-high-throughput screening (AID 540297); type: functional
T2 sequence (Q9GZU7 whole entry): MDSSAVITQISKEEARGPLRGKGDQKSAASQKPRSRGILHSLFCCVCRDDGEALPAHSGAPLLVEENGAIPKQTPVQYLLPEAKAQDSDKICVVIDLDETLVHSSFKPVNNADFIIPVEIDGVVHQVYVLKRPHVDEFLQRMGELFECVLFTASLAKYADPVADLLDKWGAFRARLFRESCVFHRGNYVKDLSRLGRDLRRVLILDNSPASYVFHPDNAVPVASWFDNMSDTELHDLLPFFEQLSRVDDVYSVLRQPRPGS

[3] = Shn3 3'UTR reporter inhibitors, dose response, cell-based, Clone20 osteoblasts, firefly luciferase, cherry-picked (AID 624132); type: functional;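 note: firefly luciferase luminescence from reporter carrying the Shn3 3'UTR in osteoblasts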
[4] = HepG2 cell cytotoxicity, dose response, cytotoxicity control for Shn3 inhibitor project, CellTiter-Glo, cherry-picked (AID 624134); type: functional, cell-based
[5] = control 3'UTR Renilla luciferase suppression, dose response, counter-screen for Shn3 inhibitor project, cell-based, Clone20-Shn3RL, cherry-picked (AID 624133); type: functional
Nonstructural protein 1 = Nonstructural protein 1 (Influenza A virus, UniProt Q194T2); type: functional, Influenza A virus (A/California/07/2009(H1N1))
[6] = target: T3, Replicative DNA helicase DnaB (Mycobacterium tuberculosis, UniProt P9WMR3); assay: DnaB intein splicing inhibitors, dose response, biochemical, cell-free fluorescence (AID 449749); type: functional
T3 sequence (P9WMR3 whole entry): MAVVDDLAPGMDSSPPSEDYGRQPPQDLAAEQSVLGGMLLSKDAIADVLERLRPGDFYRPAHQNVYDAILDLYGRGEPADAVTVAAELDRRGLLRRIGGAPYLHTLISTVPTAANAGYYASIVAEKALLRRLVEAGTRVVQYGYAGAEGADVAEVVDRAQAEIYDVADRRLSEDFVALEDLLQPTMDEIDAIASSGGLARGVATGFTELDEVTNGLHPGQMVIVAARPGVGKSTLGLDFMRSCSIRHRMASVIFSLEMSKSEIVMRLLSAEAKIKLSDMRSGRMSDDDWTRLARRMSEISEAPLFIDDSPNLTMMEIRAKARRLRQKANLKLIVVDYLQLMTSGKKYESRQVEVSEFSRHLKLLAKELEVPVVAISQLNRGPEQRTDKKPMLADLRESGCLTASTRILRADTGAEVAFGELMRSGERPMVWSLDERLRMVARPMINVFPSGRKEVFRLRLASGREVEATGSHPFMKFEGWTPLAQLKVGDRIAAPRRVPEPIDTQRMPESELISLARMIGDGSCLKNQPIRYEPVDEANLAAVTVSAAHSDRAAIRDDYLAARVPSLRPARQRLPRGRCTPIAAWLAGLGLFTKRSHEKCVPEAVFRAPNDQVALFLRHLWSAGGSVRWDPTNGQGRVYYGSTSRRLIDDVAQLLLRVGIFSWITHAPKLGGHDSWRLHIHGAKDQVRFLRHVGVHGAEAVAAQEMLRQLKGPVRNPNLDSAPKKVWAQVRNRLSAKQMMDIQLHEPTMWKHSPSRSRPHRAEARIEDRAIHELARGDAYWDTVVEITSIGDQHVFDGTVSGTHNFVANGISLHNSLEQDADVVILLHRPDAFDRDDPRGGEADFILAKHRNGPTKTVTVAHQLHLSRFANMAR

Protein RecA = target: T4, Protein RecA (Mycobacterium tuberculosis, UniProt P9WHJ3); assay: Fluorescence Cell-Free Homogeneous Dose Retest to Identify Inhibitors of RecA-Intein Splicing Activity. [Related pubchem assays (depositor defined):AID2097, AID2223, AID489010, AID492950]; type: functional
T4 sequence (P9WHJ3 whole entry): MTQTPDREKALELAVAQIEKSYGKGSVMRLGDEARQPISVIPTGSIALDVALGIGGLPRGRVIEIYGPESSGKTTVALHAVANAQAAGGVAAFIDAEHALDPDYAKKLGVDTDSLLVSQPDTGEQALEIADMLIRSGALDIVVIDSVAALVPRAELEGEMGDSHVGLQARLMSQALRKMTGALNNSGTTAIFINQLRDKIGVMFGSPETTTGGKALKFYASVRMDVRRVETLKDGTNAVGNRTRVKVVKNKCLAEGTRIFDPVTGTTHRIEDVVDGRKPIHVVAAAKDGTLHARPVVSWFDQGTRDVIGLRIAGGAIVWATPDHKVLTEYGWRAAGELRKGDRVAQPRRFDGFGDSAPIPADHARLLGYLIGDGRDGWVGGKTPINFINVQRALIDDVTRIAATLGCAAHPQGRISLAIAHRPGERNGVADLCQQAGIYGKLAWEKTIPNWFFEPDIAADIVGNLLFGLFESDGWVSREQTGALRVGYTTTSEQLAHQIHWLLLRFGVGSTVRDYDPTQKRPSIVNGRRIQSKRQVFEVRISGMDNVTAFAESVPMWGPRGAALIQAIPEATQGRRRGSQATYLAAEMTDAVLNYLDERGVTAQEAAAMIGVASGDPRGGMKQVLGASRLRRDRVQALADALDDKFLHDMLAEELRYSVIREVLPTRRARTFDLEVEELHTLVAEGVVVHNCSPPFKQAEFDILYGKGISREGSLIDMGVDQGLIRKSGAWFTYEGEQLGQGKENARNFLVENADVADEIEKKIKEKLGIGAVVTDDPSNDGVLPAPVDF

Genome polyprotein = Genome polyprotein (dengue virus type 2, UniProt P29990); assay: Dengue-2 NS5 methyltransferase inhibitors, primary screen, biochemical, confirmation dose response (AID 588689); type: functional
[7] = target: T5, Rac GTPase-activating protein 1 (Homo sapiens, UniProt Q9H0H5); assay: MgcRacGAP GTPase-activating activity inhibitors, confirmation, biochemical, ADP Hunter fluorescence, primary and confirmatory (AID 624330); type: functional
T5 sequence (Q9H0H5 whole entry): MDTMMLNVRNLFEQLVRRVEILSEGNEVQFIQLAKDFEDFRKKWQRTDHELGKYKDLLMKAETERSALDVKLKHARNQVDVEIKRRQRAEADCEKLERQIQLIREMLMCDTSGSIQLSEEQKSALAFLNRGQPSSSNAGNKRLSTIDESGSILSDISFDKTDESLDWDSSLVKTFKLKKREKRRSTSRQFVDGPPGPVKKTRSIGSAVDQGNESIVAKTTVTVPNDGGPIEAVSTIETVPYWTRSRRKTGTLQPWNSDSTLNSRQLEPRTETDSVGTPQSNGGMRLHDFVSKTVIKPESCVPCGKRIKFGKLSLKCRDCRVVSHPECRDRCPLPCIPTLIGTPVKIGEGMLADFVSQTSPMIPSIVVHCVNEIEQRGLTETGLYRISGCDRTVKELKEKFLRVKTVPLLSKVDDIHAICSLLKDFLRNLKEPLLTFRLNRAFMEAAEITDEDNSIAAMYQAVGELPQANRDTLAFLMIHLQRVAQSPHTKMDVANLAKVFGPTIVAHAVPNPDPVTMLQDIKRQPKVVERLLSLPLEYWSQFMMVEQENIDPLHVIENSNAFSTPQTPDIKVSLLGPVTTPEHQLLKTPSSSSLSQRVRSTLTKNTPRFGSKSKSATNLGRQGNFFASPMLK

Vero = assay: cells; type: functional; settings: Chlorocebus sabaeus
[8] = inhibitors of HIV Env-driven cell fusion, dose response, cherry-pick (AID 652057); type: functional, cell-based
[9] = inhibitors of clade B AD8 Env fusion, dose response, cell-based, cherry-pick (AID 652062); type: functional;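 note: luciferase signal from cell-cell fusion driven by HIV-1 clade B AD8 Env; potency is for inhibitors of fusion seen as a drop in luminescence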
[10] = target: FAD-linked sulfhydryl oxidase ALR (Homo sapiens, UniProt P55789); assay: inhibitors of human ALR sulfhydryl oxidase, dose response, biochemical, H2O2 detection, luminescence, cherry-pick (AID 493248)
FAD-linked sulfhydryl oxidase ALR, sequence (P55789 whole entry): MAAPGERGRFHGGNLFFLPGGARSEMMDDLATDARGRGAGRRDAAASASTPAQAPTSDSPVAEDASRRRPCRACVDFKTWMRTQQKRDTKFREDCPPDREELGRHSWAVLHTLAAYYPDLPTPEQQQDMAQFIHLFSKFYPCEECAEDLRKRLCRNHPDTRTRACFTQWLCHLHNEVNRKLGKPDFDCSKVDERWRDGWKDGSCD

Nonstructural protein 1, sequence (Q194T2 whole entry): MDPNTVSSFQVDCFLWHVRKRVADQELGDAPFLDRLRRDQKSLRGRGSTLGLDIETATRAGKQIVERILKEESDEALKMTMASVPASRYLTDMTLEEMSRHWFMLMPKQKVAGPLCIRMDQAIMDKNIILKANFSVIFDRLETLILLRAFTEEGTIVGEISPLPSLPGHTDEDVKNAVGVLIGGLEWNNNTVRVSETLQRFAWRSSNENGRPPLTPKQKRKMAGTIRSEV
Genome polyprotein, sequence (P29990 2492-3391 limits assumed): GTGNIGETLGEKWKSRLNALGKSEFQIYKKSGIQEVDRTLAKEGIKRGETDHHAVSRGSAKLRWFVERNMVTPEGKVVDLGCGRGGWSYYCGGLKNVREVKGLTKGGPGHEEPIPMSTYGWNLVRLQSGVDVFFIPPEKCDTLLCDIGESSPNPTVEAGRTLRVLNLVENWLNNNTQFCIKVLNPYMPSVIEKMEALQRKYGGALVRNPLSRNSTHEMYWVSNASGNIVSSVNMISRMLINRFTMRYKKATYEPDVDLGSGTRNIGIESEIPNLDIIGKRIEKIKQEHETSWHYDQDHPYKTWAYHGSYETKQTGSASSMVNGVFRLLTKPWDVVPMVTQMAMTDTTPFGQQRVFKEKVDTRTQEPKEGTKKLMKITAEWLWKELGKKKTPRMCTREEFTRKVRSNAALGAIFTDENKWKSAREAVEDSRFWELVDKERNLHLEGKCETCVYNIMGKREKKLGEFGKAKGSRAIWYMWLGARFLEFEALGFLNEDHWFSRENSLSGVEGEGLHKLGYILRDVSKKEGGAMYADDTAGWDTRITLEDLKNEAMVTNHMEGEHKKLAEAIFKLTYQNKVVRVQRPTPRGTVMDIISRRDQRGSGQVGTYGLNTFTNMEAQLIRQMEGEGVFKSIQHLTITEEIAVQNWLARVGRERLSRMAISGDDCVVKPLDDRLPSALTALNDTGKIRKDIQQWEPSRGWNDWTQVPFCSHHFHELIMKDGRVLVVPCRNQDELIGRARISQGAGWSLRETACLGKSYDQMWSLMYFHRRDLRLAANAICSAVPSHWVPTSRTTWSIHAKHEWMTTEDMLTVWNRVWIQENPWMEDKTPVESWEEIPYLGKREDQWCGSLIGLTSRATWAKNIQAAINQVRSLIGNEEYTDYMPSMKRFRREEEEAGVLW

**Q.** For Cc1c(NS(=O)(=O)c2cc(C(=O)NCCN(C)C)ccc2Cl)c(=O)n(-c2ccccc2)n1C, which EC50 [1] is on record?
**A.** > 195 µM (not active)

**Q.** What about the IC50 [2] of the same compound?
**A.** 9.93 µM (active)

**Q.** With Cc1cc(NNC(=O)c2cccc(C(F)(F)F)c2)nc2c1c(C)nn2C as the compound, how does the AC50 [3] read?
**A.** 2.43 µM (active)

**Q.** What about the AC50 [4] of the same compound?
**A.** 57 µM (active)

**Q.** What about the AC50 [5] of the same compound?
**A.** 3.61 µM (active)

**Q.** For N#C/C(=C\c1ccccc1[N+](=O)[O-])c1nc(C2CC2)cs1, which IC50 (Nonstructural protein 1) is on record?
**A.** 75.1 µM (active)

**Q.** With CS(=O)(=O)C1=NN2C(=N)/C(=C\c3ccc(OCCOc4ccccc4)cc3)C(=O)N=C2S1 as the compound, how does the IC50 [2] read?
**A.** 6.76 µM (active)

**Q.** Which results are given for Cc1ccc(C)c(N2CCN(C(=O)CCS(=O)(=O)c3ccc4c(c3)NC(=O)C(C)S4)CC2)c1 (stereo unspecified)?
**A.** AC50 [3]: 4.47 µM (active); AC50 [4]: 4.58 µM (active); AC50 [5]: 8.6 µM (active)

**Q.** Which results are given for COc1ccccc1/C=C1/C(=O)N(c2ccccc2)N=C1C?
**A.** AC50 [6]: 96.6 µM (active); EC50 (Protein RecA): 0.0356 µM (active); IC50 (Genome polyprotein): 90.2 µM (active); IC50 [7]: 119 µM (active)

**Q.** With CC(CNC(=O)c1cc(COc2ccc3ncccc3c2)on1)c1ccccc1 (stereo unspecified) as the compound, how does the AC50 [3] read?
**A.** 3.73 µM (active)

**Q.** What about the AC50 [4] of the same compound?
**A.** 48.9 µM (active)

**Q.** And the AC50 [5]?
**A.** 11.2 µM (active)

**Q.** With CC(=Nc1ccccc1)C1=C(O)C(Cc2ccc(O)cc2)NC1=O (stereo unspecified) as the compound, how does the CC50 (Vero) read?
**A.** 0.98 µM (active)

**Q.** Which IC50 [2] does the source give for CN(C)C(=O)c1ccc(NC(=O)c2cc(-c3ccco3)nc3ccccc23)cc1 here?
**A.** 7.55 µM (active)

**Q.** Which AC50 [8] does the source give for C[C@@H]1CN([C@@H](C)CO)S(=O)(=O)c2ccc(-c3cccc(F)c3)cc2O[C@@H]1CN(C)S(=O)(=O)c1ccc(F)cc1 here?
**A.** 1.34 µM (active)

**Q.** What about the AC50 [9] of the same compound?
**A.** 24.2 µM (active)

**Q.** For CN1C(=O)c2cc(NC(=O)c3cscn3)ccc2OC[C@H]2O[C@H](CC(=O)NCc3ccc(Cl)c(Cl)c3)CC[C@H]21, which AC50 [8] is on record?
**A.** 11.3 µM (active)

**Q.** What about the AC50 [9] of the same compound?
**A.** 41.8 µM (active)

**Q.** With Cc1ccn(CC(=O)N/N=C/c2cc([N+](=O)[O-])ccc2O)n1 as the compound, how does the IC50 (Nonstructural protein 1) read?
**A.** 7.07 µM (active)

**Q.** With O=C(N/N=C/C1C(=O)NC(=S)N(c2ccccc2)C1=O)c1cc(Br)c(O)c(Br)c1 (stereo unspecified) as the compound, how does the IC50 (Nonstructural protein 1) read?
**A.** 10.5 µM (active)

**Q.** With Cc1cc2c(s1)Nc1ccccc1N=C2N1CCN(C)CC1 [OLANZAPINE] as the compound, how does the AC50 [10] read?
**A.** 0.369 µM (active)
